From US11319307B2, “2,3-dihydrobenzohurans as bromodomain inhibitors” (GLAXOSMITHKLINE INTELLECTUAL PROPERTY (NO.2) LIMITED, priority 2017, dated 2022)

Tested on: BET family (BRD2, BRD3, BRD4 and BRDT) single and double mutant tandem domain proteins
Test: Fluorescence Polarisation binding of Reference Compound X to mutant tandem BET proteins
Set-up: species or system Human
Experimental: The competition of the compounds of formula (I) with Reference Compound X for binding to the BET family (BRD2, BRD3, BRD4 and BRDT) was assessed using protein truncates spanning both bromodomain 1 (BD1) and bromodomain 2 (BD2). In order to monitor differential binding to either BD1 or BD2, single residue mutations of key tyrosines to alanine were made in the acetyl lysine binding pockets. To validate this approach, a double residue mutant tandem domain protein was produced for each of the BET family members. Utilising a Fluorescence Polarisation approach, binding affinities for each of the single and double mutants for Reference Compound X were determined. […] The affinities of the single mutated bromdomain tandem proteins for Reference Compound X were equi-potent with the corresponding non-mutated BET protein. […] In the TR-FRET competition assay, Reference Compound X is used at a concentration that is equivalent to the Kd for the non-mutated bromodomain, which ensures that no binding at the mutated bromodomain is detected. […]

COc1ccc2c(c1)C(c1ccc(Cl)cc1)=N[C@@H](CC(=O)NCCCCCNC(=O)CCCCCC1(C)/C(=C/C=C/C=C/C3=[N+](CCCCS(=O)(=O)O)c4ccc(S(=O)(=O)O)cc4C3(C)C)N(CCCCS(=O)(=O)[O-])c3ccc(S(=O)(=O)O)cc31)c1nnc(C)n1-2 (some centres unmarked) [Reference Compound X]
reduction in Kd (affinity for Reference Compound X) (double mutant tandem proteins versus non mutated, wild type tandem BET proteins): > 1000 fold | reduction of the Kd of the interaction between the mutated bromodomain and Reference Compound X (single mutations of Tyrosine to Alanine): > 1000 fold
